Source: article PMC11188305, “Reproductive and fetal toxicity studies of histamine H3 receptor antagonist DL76 used in mice to prevent maximal electroshock-induced seizure” (Frontiers in Pharmacology, 2024)
Like-named read-outs stand apart in the source and are kept apart here.

Legend:
[1] = biological target: T1, hH2R (Homo sapiens, UniProt P25021); assay: hH2R radioligand binding, [125I]APT in CHO cells (Eurofins Cerep)
T1 construct: host or cells: CHO cells

[2] = design: method as in Szafarz et al., 2015; settings: ref Szafarz et al., 2015, cited from earlier work
[3] = system: C57/B6 mouse embryos; assay: Skeletal malformations (double staining of fetuses); format: in vivo, C57BL/6J mice
From the text: After isolating fetuses from viscera and skin, they underwent a fat-removal process by immersion in acetone for 1–3 days. The resulting transparent specimens underwent a sequence of glycerin solutions (50% and 80%) before being finally stored in 100% glycerin for observation of malformations using a stereo dissecting microscope ([McLeod, 1980]; [Sterz and Lehmann, 1985]; [Abdulrazzaq et al., 1997]; [Bass et al., 2020]). Following this, specimens were processed and stained with Alizarin Red-S and Alcian blue ([McLeod, 1980]; [Sterz and Lehmann, 1985]; [Abdulrazzaq et al., 1997]; [Bass et al., 2020]) to identify bone and cartilage deformities.
Statistical analyses employed SPSS 26.0 (IBM Middle East, Dubai, UAE). Data were presented as means ± SEM. […] Fetal abnormality data were presented as counts and percentages. Fisher’s exact test compared the percentages of abnormalities between the control group (saline) and the different dose groups. All tests were two-tailed, and significance was set at p < 0.05.

[4] = biological target: hH4R; design: method as in Lazewska et al. (2020) and Canale et al. (2021); settings: Sf9 cells; [3H]histamine; ref Lazewska et al. (2020) and Canale et al. (2021); cited from earlier work
[5] = biological target: T2, hN neuronal α4β2 (Homo sapiens, UniProt P17787+P43681); assay: hN neuronal α4β2 binding, [3H]cystine in SH-SY5Y cells (Eurofins Cerep)
T2 construct: host or cells: SH-SY5Y cells
T2 sequence (P43681 29-627 limits assumed): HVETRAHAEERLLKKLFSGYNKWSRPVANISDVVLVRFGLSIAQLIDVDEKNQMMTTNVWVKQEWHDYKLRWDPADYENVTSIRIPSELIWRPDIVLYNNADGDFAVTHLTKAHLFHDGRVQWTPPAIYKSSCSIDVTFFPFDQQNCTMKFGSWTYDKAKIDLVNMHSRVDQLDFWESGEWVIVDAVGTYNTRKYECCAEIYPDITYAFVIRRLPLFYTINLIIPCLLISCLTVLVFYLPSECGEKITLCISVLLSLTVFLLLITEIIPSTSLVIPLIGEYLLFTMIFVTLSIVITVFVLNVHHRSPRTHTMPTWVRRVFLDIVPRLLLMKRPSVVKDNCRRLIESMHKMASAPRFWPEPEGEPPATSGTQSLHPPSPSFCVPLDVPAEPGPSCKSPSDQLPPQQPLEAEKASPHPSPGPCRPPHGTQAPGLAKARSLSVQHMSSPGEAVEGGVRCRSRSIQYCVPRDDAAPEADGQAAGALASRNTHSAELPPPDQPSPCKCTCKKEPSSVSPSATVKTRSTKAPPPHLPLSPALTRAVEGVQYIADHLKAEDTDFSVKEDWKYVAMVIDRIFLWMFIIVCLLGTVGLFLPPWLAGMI
T2 sequence (P17787 26-502): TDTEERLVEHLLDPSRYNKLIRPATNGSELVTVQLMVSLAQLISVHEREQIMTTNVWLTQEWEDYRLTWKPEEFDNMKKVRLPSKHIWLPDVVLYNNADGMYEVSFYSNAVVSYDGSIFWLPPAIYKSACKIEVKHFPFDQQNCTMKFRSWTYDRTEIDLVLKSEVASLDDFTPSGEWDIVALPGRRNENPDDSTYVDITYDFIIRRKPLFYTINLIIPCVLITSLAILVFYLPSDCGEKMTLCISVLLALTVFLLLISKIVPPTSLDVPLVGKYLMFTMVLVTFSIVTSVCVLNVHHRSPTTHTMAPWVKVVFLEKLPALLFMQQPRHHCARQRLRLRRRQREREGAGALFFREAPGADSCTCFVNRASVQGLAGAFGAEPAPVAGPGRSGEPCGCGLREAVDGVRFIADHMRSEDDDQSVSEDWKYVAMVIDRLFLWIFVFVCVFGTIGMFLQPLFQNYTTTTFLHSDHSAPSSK

T1 sequence (P25021 whole entry): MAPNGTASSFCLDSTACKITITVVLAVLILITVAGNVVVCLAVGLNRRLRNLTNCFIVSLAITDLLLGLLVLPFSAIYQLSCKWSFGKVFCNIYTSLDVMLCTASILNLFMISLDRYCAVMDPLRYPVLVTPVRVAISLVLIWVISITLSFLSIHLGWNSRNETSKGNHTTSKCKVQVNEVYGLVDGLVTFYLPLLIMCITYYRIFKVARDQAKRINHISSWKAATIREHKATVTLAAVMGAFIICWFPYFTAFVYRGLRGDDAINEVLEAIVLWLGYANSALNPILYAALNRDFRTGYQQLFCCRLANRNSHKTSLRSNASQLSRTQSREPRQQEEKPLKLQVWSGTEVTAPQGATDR

Q: Which inhibition at 1 µM [1] does the source give for `CC(C)(C)c1ccc(OCCCN2CCCCC2)cc1` [DL76, 1-(3-(4-tert-butyl-phenoxy)propyl) piperidine] here?
A: 2.8%

Q: What about the “AUC0→∞” value ([2]; dose 3 mg/kg) of the same compound?
A: 298 ng◦h/mL

Q: What about the C0 ([2]; dose 3 mg/kg) of the same compound?
A: 564 ng/mL

Q: What about the “AUC0→∞” value ([2]; dose 6 mg/kg) of the same compound?
A: 685 ng◦h/mL

Q: And the C0 ([2]; dose 6 mg/kg)?
A: 653 ng/mL

Q: And the “concentrations in cortex, hippocampus and striatum higher than in whole brain tissues” value ([2]; experimental animals)?
A: 44%

Q: And the femur length ([3]; 7.5 mg/kg and 60 mg/kg groups)?
A: significantly decreased

Q: What about the “tibia and fibula lengths vs controls” value ([3]; 7.5 mg/kg, 30 mg/kg and 60 mg/kg groups) of the same compound?
A: significantly decreased

Q: And the “mean crown-to-rump length vs control groups” value ([3]; 7.5 mg/kg-, 30 mg/kg- and 60 mg/kg-treated groups)?
A: decreased significantly

Q: What about the “humerus and ulna lengths” value ([3]; 30 mg/kg and 60 mg/kg groups) of the same compound?
A: reduced

Q: What about the radius length ([3]; 30 mg/kg group only) of the same compound?
A: significant decrease

Q: What about the femur length ([3]; 30 mg/kg group, p = 0.06) of the same compound?
A: non-significant decrease

Q: What about the “incidence of lumbar ribs vs saline-treated control” value ([3]; DL76-treated group) of the same compound?
A: not significantly different

Q: And the “fifth sternebrium, absence or occurrence of hypoplasia, vs control” value ([3]; DL76-treated groups)?
A: no significant difference

Q: What about the “skull or facial bones” value ([3]; all groups) of the same compound?
A: No significant differences

Q: What about the “vertebrae: number of centra or number of unossified/hypoplastic bodies” value ([3]; all the DL-76-treated groups) of the same compound?
A: no differences

Q: And the “crown–rump length and lengths of the long bones of the extremities” value ([3]; higher doses of 30 mg/kg, 60 mg/kg and 15 mg/kg × 3)?
A: seemed to be affected

Q: And the Ki [4]?
A: 66 µM

Q: What about the inhibition at 1 µM [5] of the same compound?
A: 3%
